Experiments:
[1] = test system: patients with moderate to severe atopic dermatitis; experiment: Phase II study of oral DS107G: eosinophil concentrations and responders by ethnicity; type: in vivo, human; conditions: for Patients classified as Responders: IGA 0 or 1 at Week 8 with 2-point decrease
Protocol: The primary endpoint can be translated as a responder analysis where a subject is classified as Responder if he/she achieves an IGA score of 0 (clear) or 1 (almost clear) at Week 8, considering a 2-point decrease from baseline. The comparison between groups for the primary endpoint was done using a Cochran-Mantel-Haenszel test, with site included as a stratification factor. A supportive analysis was performed using a Fisher's exact test. The primary efficacy analysis was done using observed values and a supportive analysis was conducted using the last observation carried forward (LOCF) approach. The analyses was done using the ITT population and served as the primary analysis, while the analysis of the primary endpoint using the PP population was used as a sensitivity analysis.
A surprising discovery was observed when the data was further interrogated.
Eosinophils are a type of white blood cell that play an important role in the body's response to allergic reactions, asthma, and infection with parasites. Eosinophils usually account for less than 7% of the circulating white blood cells (100 to 500 eosinophils per microliter of blood). These cells have a role in the protective immunity against certain parasites but also contribute to the inflammation that occurs in allergic disorders.
FIG. 30A-B. In particular, 56% of DS107-treated African America patients were classified as Responders, versus only 7% of Caucasian patients. FIG. 31A-B. As discussed in detail above, a subject is classified as a Responder if he/she achieves an IGA score of 0 (clear) or 1 (almost clear) at Week 8, considering a 2-point decrease from baseline. FIG. 32 depicts the same data for eosinophil concentrations in all Responders in the total population (FIG. 32A) and for DS107 treated patients (FIG. 32B) and placebo treated patients (FIG. 32C). […] FIG. 33A-C. […] FIGS. 34A-C and FIGS. 35A-C.

[2] = Phase 1 food effect on single-dose plasma pharmacokinetics (1000 mg, fasted vs fed); type: in vivo, human
Protocol: The effect of food on the PK of an orally administered single dose of DS107G capsule in healthy subjects; and
Subjects were randomly assigned in a 3:1 ratio of DG107G to placebo by block randomization. Single dose part one of the study comprised three cohorts of eight subjects each, with the addition of Cohort four based on evaluation of the safety data of Cohort three by the Safety Monitoring Committee (SMC). A single oral dose of DS107G or matching placebo was administered to fasted subjects in Cohorts one to three (500, 1000, and 2000 mg, respectively) in parallel; subjects in Cohort four were administered a dose of 4000 mg following completion of Cohort three. Subjects in Cohort two received 1000 mg or matching placebo in the fed state at ≥14 days after the first dose.
Food effect was evaluated in Cohort two at least 14 days after the first dose at which time a second single dose was administered, Subjects were administered a 1000-mg dose of study drug with 240 mL of water after a 10-hour fasting period and 30 minutes after starting consumption of a meal. Subjects then refrained from food intake for at least 4 hours after dosing, Food consumption was standardized for at least 12 hours after dosing using a standardized high-fat meal (800 to 1000 kcal with 500 to 600 kcal from fat and 250 kcal from carbohydrates). A typical standard test meal consisted of two eggs fried in butter, two strips of bacon, two slices of toast with butter, 120 mL of hash brown potatoes, and 240 mL of whole milk.
Subjects in Cohort two undergoing evaluation of the food effect on oral 1000 mg DGLA capsules were restricted from food consumption for at least 4 hours after dosing. Food consumption was standardized for at least 12 hours post dose using a standardized high-fat meal.

[3] = test system: spontaneous hypertensive rats; experiment: Arterial pressure in spontaneous hypertensive rats after seven days of gavage, with intravenous phenylephrine challenge; type: in vivo, rat; conditions: DGLA 50 or 500 mg/kg alone; effect eliminated by aspirin
Protocol: An in vivo investigation of anti-hypertension efficacy following co-administration of DGLA and aspirin in spontaneous hypertensive rats was conducted. This experiment investigated the efficacy of DGLA when co-administered chronically with aspirin to reduce the hypertensive response induced acutely by phenylephrine in spontaneous hypertensive rats. Spontaneously hypertensive adult male rats (250-300 g), bred by Charles River Laboratories, were used for this assay. […] The animals were pair-housed by group (low dose+aspirin, high dose+aspirin or aspirin alone) for the duration of the oral gavage prior to surgery.
The test article was formulated using olive oil as the vehicle. This stock solution was then administered by oral gavage once per day for seven consecutive days. A low and a high dose (50 mg/kg and 500 mg/kg) were tested.
A 5 mg/ml stock solution of aspirin was prepared by dissolving the appropriate amount of aspirin in 100% DMSO which was then diluted in water. The concentration of DMSO was less than 1%. The appropriate volume was administered by oral gavage to each animal once per day for seven consecutive days. The stock solution was stored at room temperature and was considered stable for the duration of the gavage.
The appropriate volume was administered to each animal by an intravenous injection at the end of the experiment on the surgery day. The stock solution was stored at 4° C. and was considered stable for the duration of the experiment.
Male spontaneous hypertensive rats weighing approximately 300 g arrived at the facility at least two days before beginning the oral gavage. Animals were assigned to one of three groups (low dose+aspirin, high dose+aspirin, and aspirin), and were pair-housed during the acclimation period. […]
Rats were anesthetized with a 2.5-3.0% isoflurane-O2 mixture in an induction box. […] Blood pressure, systemic arterial pressure (SAP), and heart rate were monitored continuously for a total of half an hour. Hypertension was detected as an increase in diastolic, systolic or mean blood pressure. […]

[4] = test system: patients with moderate to severe atopic dermatitis; experiment: Phase II study of oral DS107G: safety; type: in vivo, human; conditions: oral 2 g once daily 8 weeks
Description: Subjects visited the clinic on 6 occasions: at screening, baseline, week 2, week 4, week 8 (end of treatment/early termination) and week 10 (follow-up). All subjects exited the study at the week 10 visit. The primary efficacy variable was the proportion of patients achieving an IGA of 0 (clear) or 1 (almost clear), and a decrease of at least 2 points in IGA at week 8. Secondary efficacy variables included: IGA at other visits, pruritus (obtained from the SCORAD visual analog scale), EASI, BSA, POEM, DLQI, SCORAD and TEWL (for selected sites only). Safety was assessed through adverse events, physical examination, vital signs and safety laboratory tests (including pregnancy tests for women of childbearing potential), Pharmacokinetic samples were obtained at Baseline (Day 0), week 4 and week 8 visits in order to measure total and free DGLA plasma trough levels. Separate plasma samples were retained for later analysis of total fatty acid profile and interleukin profile.
Laboratory tests were performed at screening, Day 0, Week 4 and Week 8. If Week 8 results indicated a clinically significant change from baseline, laboratory tests were also performed at Week 10. […]
Efficacy was evaluated on the basis of the ITT population and analyses were performed based on the randomized treatment and not on the treatment received. […]

[5] = test system: healthy male and female subjects; experiment: Phase 1 study safety and tolerability (single and multiple dose); conditions: for Tolerability: healthy volunteers
Protocol: Screening procedures were conducted for both parts one and two before the start of the study on Day −1 (Baseline) by evaluating the safety assessments.
Subjects were monitored throughout their confinement at the Phase 1 unit for adverse reactions to the study drug and/or procedures.
Safety analyses were performed on the safety population tabulated by treatment arm, cohort, and visit. All safety data were characterized by descriptive statistical tools. […] Evaluation of safety assessments was performed in a descriptive manner. Continuous variables were characterized by their mean, standard deviation (SD), median, minimum and maximum values; discrete variables were characterized by their absolute (frequency) and relative (percentage) distribution.

## CCCCC/C=C\C/C=C\C/C=C\CCCCCCC(=O)O [DGLA, Dihomo gamma linolenic acid]
[1]; African America patients
  Patients classified as Responders: 56%
[1]; Caucasian patients
  Patients classified as Responders: 7%
[1]; in vivo
  Response rate in subjects having low baseline eosinophil counts: higher response rate
[2]; single 1000 mg dose
  Free DGLA Cmax occurred sooner under fasted than fed conditions (median): 1 h
  Mean baseline-corrected free DGLA Cmax, fasted over fed: about 3 fold
  Mean baseline-corrected total DGLA AUC0-24, fasted over fed: about 1,8 fold
  Mean baseline-corrected total DGLA Cmax, fasted over fed: about 1.5 fold
  Mean free DGLA baseline-corrected AUC0-24, fasted over fed: about 2 fold
[2]; single 1000 mg dose, fasted
  Mean baseline-corrected AUC0-24, total DGLA over free DGLA: ~54 fold
  Mean baseline-corrected Cmax, total DGLA over free DGLA: ~10 fold
[2]; single 1000 mg dose, fed
  Mean baseline-corrected AUC0-24, total DGLA over free DGLA: ~56 fold
  Mean baseline-corrected Cmax, total DGLA over free DGLA: ~20 fold
[2]; single 1000-mg dose
  Rate and extent of total DGLA absorption (mean Cmax and AUC0-24), fasted higher than fed: approximately 50%
[3]
  Effect on arterial pressure in spontaneously hypertensive rats: successfully decreases the arterial pressure
[4]
  Drug related Serious Adverse Events: no drug related Serious Adverse Events
  Tolerability: very well tolerated
[5]; 2000- or 4000-mg once daily for 28 consecutive days
  Tolerability: tolerated well
[5]; multi-dose study
  Deaths: no deaths
[5]; multiple dose
  Severe TEAEs: no severe TEAEs
  Total number of TEAEs among active-treated subjects: 52
[5]; multiple dose, 2000-mg group (3/6)
  Proportion of subjects reporting diarrhea: 50%
[5]; multiple dose, 4000-mg group (4/6)
  Proportion of subjects reporting diarrhea: 66.7%
[5]; multiple dose, 4000-mg treatment group (10 events among 4/6)
  Subjects reporting nausea: 66.7%
[5]; multiple dose, 11/12 subjects
  Incidence of TEAEs among active-treated subjects: 91.73%
[5]; single dose 500, 1000, 2000 or 4000 mg
  Tolerability: well tolerated
[5]; single dose, 5/24 subjects
  Incidence of diarrhea (loose stool), active-treated subjects: 20.8%
